Data on 8 compounds can be found in ChEMBL document CHEMBL1147738, “Potent and selective mitogen-activated protein kinase kinase (MEK) 1,2 inhibitors. 1. 4-(4-bromo-2-fluorophenylamino)-1- methylpyridin-2(1H)-ones” (J Med Chem, 2006).

Test [1] concerns Malme-3M. Description: Inhibition of cellular viability of Malme-3M cells. The class given is functional, Homo sapiens.
Test [2] concerns Malme-3M. Description: Inhibition of basal ERK phosphorylation in Malme-3M cells. The class given is functional, Homo sapiens.

Turning to `Cn1cc(C(=O)NO)c(Nc2ccc(Br)cc2F)c(F)c1=O`, the Activity with Malme-3M [1] turned out to be 860 nM; in the test with Malme-3M [2] it was 18 nM.
For `Cn1cc(C(=O)NOCCO)c(Nc2ccc(Br)cc2F)c(F)c1=O`, the Activity with Malme-3M [1] is on record as 115 nM; in the test with Malme-3M [2], 22 nM.
Regarding `CONC(=O)c1cn(C)c(=O)c(F)c1Nc1ccc(Br)cc1F`, the results for the Activity in the test with Malme-3M [1] and with Malme-3M [2] were 145 nM and 22 nM, respectively.
Consider `Cn1cc(C(=O)NOCC2CC2)c(Nc2ccc(Br)cc2F)cc1=O`, for which the Activity in the test with Malme-3M [1] amounted to 165 nM; in the test on Malme-3M [2], 26 nM.
Take `Cn1cc(C(=O)NOCC2CC2)c(Nc2ccc(Br)cc2F)c(F)c1=O`: the results for the Activity in the test with Malme-3M [1] and with Malme-3M [2] were 22 nM and 3.4 nM, respectively.
For `O=C(NOCCO)c1cnc(Cl)c(Cl)c1Nc1ccc(Br)cc1F`, the Activity with Malme-3M [1] is listed as more than 5000 nM; in the test on Malme-3M [2], more than 10000 nM.
Consider `Cn1cc(C(=O)NOCCO)c(Nc2ccc(Br)cc2F)c(Cl)c1=O`, for which the Activity was 175 nM with Malme-3M [1] and 26 nM in the test with Malme-3M [2].
Take `Cn1cc(C(=O)NOCC2CC2)c(Nc2ccc(Br)cc2F)c(Cl)c1=O`: the Activity in the test with Malme-3M [1] is 195 nM; with Malme-3M [2], 27 nM.
